Experimental data: patent US20200383985A1, “Inhibitors of Protease Activated Receptor-2” (Endosome Therapeutics, Inc., priority 2017, published 2020)
Read-outs that look alike come from different tables or passages of the source. Starred links: 1 amine or outer side, 2 acyl side, 3 side chain; linkers in the order of their positions; H or OH if unused. Positions of bridges follow the written chain, without caps; N, C: chain ends. Non-standard residues stand in square brackets, D forms with d. Residues, ends and D or L forms follow the SMILES beside them. *: point of attachment. Leu(3R-OH,Nα-propionyl) = CCC(=O)N[C@H](C(=O)*)[C@H](O)C(C)C; X1 = CC(C)[C@@H](O[*:3])[C@H](N[*:1])C(=O)[*:2]; NMeT = CN[C@H](C(=O)O)[C@@H](C)O; dPhLac = O=C(O)[C@H](O)Cc1ccccc1; NMeA = CN[C@@H](C)C(=O)O; NMeDha = C=C(NC)C(=O)O

Assays:
Format in all cases: cell-based
[1] = test system: cytosolic and nuclear ERK; assay: FRET assays of cytosolic and nuclear ERK in HEK293 cells; conditions: UBO-QIC 100 nM, G66983 1 μM; for trypsin-stimulated activation of cytosolic ERK: AG1478 1 μM
Experimental: Trypsin-induced ERK signaling mediated by endosomal PAR2 signaling was investigated in HEK293 cells expressing Flag-PAR2-HA11 and FRET biosensors for cytosolic and nuclear ERK (CytoEKAR, NucEKAR), plasma membrane and cytosolic PKC (pmCKAR, CytoCKAR), and plasma membrane and cytosolic cAMP (pmEpac, CytoEpac). […] I-343 (10 μM) but not SCH530348 (100 nM) inhibited trypsin activation of cytosolic and nuclear ERK (FIG. 5G). PS2 and DynK44E inhibited trypsin-stimulated activation of cytosolic and nuclear ERK when compared to PS2 inact and DynWT controls (FIG. 5H, 5I, 17G-J). AG1478 (1 μM), an inhibitor of EGF receptor tyrosine kinase (Levitzki, A. & Gazit, A. Science 1995, 267(5205): 1782-1788), UBO-QIC (100 nM), which inhibits Gαq and certain Gβγ signals ([…]), and G66983 (1 μM), which inhibits all isoforms of PKC (Gschwendt, M, et al., FEBS Lett 1996, 392(2): 77-80), suppressed trypsin-stimulated activation of cytosolic ERK (FIGS. 5J and 17K).
HEK293 cells were cultured in DMEM supplemented with 10% (v/v) FBS (5% CO2, 37° C.). When necessary serum restriction was achieved by replacing culture medium with DMEM containing 0.5% FBS overnight. Cells were transiently transfected using polyethylenimine (PEI) (1:6 DNA:PEI).
HEK293 cells were transiently transfected in 10 cm dishes (˜50% confluency) with Flag-PAR2-HA (2.5 μg) and FRET biosensors CytoEKAR or NucEKAR (2.5 μg) (Jensen, D. D. et al., Sci Transl Med. 2017, 9(392), eaal3447; Thomsen, A. R. B., et al., Cell 2016, 166(4): 907-919). In experiments examining the role of dynamin, cells were transfected with FLAG-PAR2-HA (1.25 μg), FRET biosensor (1.25 μg) and either DynWT-HA, DynK44E-HA or pcDNA3.1 (2.5 μg). At 24 h after transfection, cells were seeded on ViewPlate-96 well plates (PerkinElmer). FRET was assessed 72 h post-transfection, following overnight serum restriction. Cells were equilibrated in HBSS-HEPES (30 min, 37° C.). FRET was measured using a PHERAstar FSX Microplate Reader (BMG LabTech). For CFP/YFP emission ratio analysis, cells were sequentially excited using a CFP filter (425/10 nm) with emission measured using YFP (550/50 nm) and CFP (490/20 nm) filters. FRET was measured before and after stimulation with trypsin (10 nM), NE (100 nM), CS (100 nM), phorbol 12,13-dibutyrate, PDBu (positive control, 1 μM), or vehicle. FRET ratios (donor/acceptor intensity for EKAR, or acceptor/donor intensity for CKAR and Epac) were calculated and corrected to baseline and vehicle treatments to determine ligand-induced FRET (ΔFRET). Treatment effects were determined by comparison of area under the curve values. Signalling inhibitors were dissolved in HBSS-HEPES. PS2 and PS2 inact were dissolved in HBSS-HEPES+1% DMSO. Cells were incubated with UBO-QIC (100 nM), AG1478 (1 μM), G66983 (1 μM), PS2 or PS2 inact (30 μM) or vehicle (30 min preincubation, inclusion throughout).

[2] = target: T1, human (h) PAR2 (Homo sapiens, UniProt P55085); assay: IP1 accumulation assay in KNRK-hPAR2 cells; conditions: 100 nM 2F; 30 μM of antagonist; read-out: KNRK-PAR2 100 nM 2F: ND (inhibition of 2F at 30 μM of antagonist)
T1 construct: expressed in transfected cells; host or cells: KNRK cells (KNRK-hPAR2)
T1 sequence (P55085 26-397): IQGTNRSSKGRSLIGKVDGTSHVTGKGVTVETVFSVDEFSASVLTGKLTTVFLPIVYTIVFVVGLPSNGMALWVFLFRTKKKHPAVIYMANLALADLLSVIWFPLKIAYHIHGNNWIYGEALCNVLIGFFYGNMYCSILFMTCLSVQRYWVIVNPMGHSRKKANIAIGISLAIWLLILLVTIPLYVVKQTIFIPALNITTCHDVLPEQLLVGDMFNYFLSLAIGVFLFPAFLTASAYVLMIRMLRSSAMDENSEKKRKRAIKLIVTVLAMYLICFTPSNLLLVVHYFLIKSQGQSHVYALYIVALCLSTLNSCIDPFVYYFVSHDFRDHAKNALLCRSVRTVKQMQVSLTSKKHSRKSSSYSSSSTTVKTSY
Experimental: (§1) KNRK-hPAR2, KNRK or HT-29 cells were seeded at a density of 50×10^3 cells/well in a clear poly-d-lysine coated 96 well tissue culture plate. Following 24 h incubation at 37° C. and 5% CO2, media was removed and replaced with 80 μl IP1 stimulation buffer (10 mM HEPES, 1 mM CaCl2, 0.5 mM MgCl2, 4.2 mM KCl, 146 mM NaCl, 5.5 mM glucose, 50 mM LiCl). Following stimulation buffer addition, the wells received 10 μl of 10× antagonists or DMSO vehicle. All plates were further incubated at 37° C., 5% CO2 for 30 min. 10 μl of 2F or ATP was added to the plates and further incubated for 40 min. Following incubation, stimulation buffer was quickly removed by aspiration and replaced with 25 μl lysis buffer (IP-One HTRF® assay kit, Cisbio). Following incubation of the lysates at 37° C., 5% CO2 for 10′, 10 μl lysate was transferred to a 384-well OptiPlate (PerkinElmer) and detected using the IP-One HTRF® assay kit (Cisbio).
(§2) Compounds of the invention (added at 10×concentrations in a 10 μL volume) were incubated for 30 min prior to the addition of 10 μM ATP or 100 nM or 300 nM PAR2 agonist (2F; EC80, added at 10×concentrations in a 10 μL volume) and then further incubated for 40 min. After lysis, the inositol phosphate 1 was quantified with IP-One HTRF® assay kit, Cisbio. The data was analysed with Prism, GraphPad to calculate the IC50 values, shown below in Table 1.
(§3) Inhibition of PAR2 signaling with known PAR2 inhibitor I-343 (FIG. 14A) was investigated in HT-29 cells and HEK293 cells, which express endogenous PAR2, and in KNRK cells expressing human (h) PAR2. Accumulation of inositol phosphate-1 (IP1) was measured in response to the PAR2-selective agonist 2-Furoyl-LIGRLO-NH2 (2F), an analogue of the trypsin-exposed tethered ligand, or trypsin.
(§4) KNRK-hPAR2, KNRK, HEK293, or HT-29 cells were seeded at a density of 50×10^3 cells/well onto clear 96-well plates (PerkinElmer). After 24 h of culture, medium was replaced with IP1 stimulation buffer (10 mM HEPES, 1 mM CaCl2, 0.5 mM MgCl2, 4.2 mM KCl, 146 mM NaCl, 5.5 mM glucose, 50 mM LiCl; 37° C., 5% CO2.). Cells were pre-incubated with the antagonist or vehicle for 30 min prior to the addition of agonist. Cells were then further incubated for 40 min. Stimulation buffer was […]

[3] = target: T2, PAR2 (Homo sapiens, UniProt P55085); assay: IP1 accumulation assay in HT-29 cells (endogenous PAR2); conditions: 2F (300 nM)-induced IP1, HT-29 cells
T2 construct: HT-29 cells and HEK293 cells, which express endogenous PAR2; endogenous in cells; host or cells: HT-29
T2 sequence (P55085 26-397): T1 sequence (P55085 26-397)
Experimental: as §1, §2, §3, §4

[4] = read-out: HT-29 300 nM 2F (IC50)

IC50 ([3]; read-out: HT-29 300 nM 2F pIC50 ± SEM (converted)) | Compound | trypsin-stimulated activation of cytosolic ERK [1] | inhibition at 30 µM [2] | IC50 [3, 4] | trypsin-stimulated activation of nuclear ERK [1]
– | COc1cc2ncnc(Nc3cccc(Cl)c3)c2cc1OC [AG1478] | suppressed | – | – | –
– | CC(C)CCC[C@@H](C)[C@H]1CCC2C3CCC4C[C@@H](OC(=O)C[C@H](NC(=O)CCOCCOCCOCCOCCOCCOCCOCCOCCNC(=O)CCCNC(=O)Cn5cc(C(=O)N6CCN(C(=O)c7cn8nc(-c9ccc(F)cc9)cc(C(C)(C)C)c8n7)C(C)(C)C6)nn5)C(N)=O)CC[C@]4(C)C3CC[C@@]21C (stereo partly drawn) [Compound 13, (3S,10S,13R,17R)-10,13-dimethyl-17-((R)-6-methylheptan-2-yl)hexadecahydro-1H-cyclopenta[a]phenanthren-3-yl (37S)-1-(4-(4-(8-(tert-butyl)-6-(4-fluorophenyl)imidazo[1,2-b]pyridazine-2-carbonyl)-3,3-dimethylpiperazine-1-carbonyl)-1H-1,2,3-triazol-1-yl)-37-carbamoyl-2,7,35-trioxo-11,14,17,20,23,26,29,32-octaoxa-3,8,36-triazanonatriacontan-39-oate] | – | < 50% | 0.736 µM | –
– | CC(C)CCC[C@@H](C)[C@H]1CC[C@H]2[C@@H]3CCC4CC(OC(=O)C[C@H](NC(=O)CCOCCOCCOCCOCCOCCOCCNC(=O)[C@H](CCCNC(=N)N)NC(=O)CCOCCOCCOCCOCCOCCOCCNC(=O)Cn5cc(C(=O)N6CCN(C(=O)c7cn8nc(-c9ccc(F)cc9)cc(C(C)(C)C)c8n7)C(C)(C)C6)nn5)C(N)=O)CC[C@]4(C)[C@H]3CC[C@]12C (stereo partly drawn) [Compound 14] | – | < 50% | 1.55 µM | –
0.0472 µM | CCCCCCCCCCCCCCCCNC(=O)C[C@H](NC(=O)CCOCCOCCOCCOCCOCCOCCOCCOCCOCCOCCOCCOCCNC(=O)Cn1cc(C(=O)N2CCN(C(=O)c3cn4nc(-c5ccc(F)cc5)cc(C(C)(C)C)c4n3)C(C)(C)C2)nn1)C(N)=O [Compound 15, (S)-3-(1-(4-(4-(8-(tert-butyl)-6-(4-fluorophenyl)imidazo[1,2-b]pyridazine-2-carbonyl)-3,3-dimethylpiperazine-1-carbonyl)-1H-1,2,3-triazol-1-yl)-2-oxo-6,9,12,15,18,21,24,27,30,33,36,39-dodecaoxa-3-azadotetracontan-42-amido)-N1-hexadecylsuccinamide] | – | < 50% | – | –
– | CC(C)CCC[C@@H](C)[C@H]1CC[C@H]2[C@@H]3CC[C@@H]4C[C@@H](OC(=O)C[C@H](NC(=O)CCOCCOCCOCCOCCOCCOCCNC(=O)[C@@H](O)[C@H](O)[C@H](O)[C@@H](O)C(=O)NC5CCC(C(=O)N6CCN(C(=O)c7cn8nc(-c9ccc(F)cc9)cc(C(C)(C)C)c8n7)C(C)(C)C6)CC5)C(N)=O)CC[C@]4(C)[C@H]3CC[C@]12C (stereo partly drawn) [Compound 16, (3S,5R,8R,9S,10S,13R,14S,17R)-10,13-dimethyl-17-((R)-6-methylheptan-2-yl)hexadecahydro-1H-cyclopenta[a]phenanthren-3-yl (3S,28S,29R,30S,31R)-32-((4-(4-(8-(tert-butyl)-6-(4-fluorophenyl)imidazo[1,2-b]pyridazine-2-carbonyl)-3,3-dimethylpiperazine-1-carbonyl)cyclohexyl)amino)-3-carbamoyl-28,29,30,31-tetrahydroxy-5,27,32-trioxo-8,11,14,17,20,23-hexaoxa-4,26-diazadotriacontanoate] | – | < 50% | 2.07 µM | –
– | CC(C)CCC[C@@H](C)[C@H]1CC[C@H]2[C@@H]3CC=C4C[C@@H](OC(=O)NCCCC[C@@H](NC(=O)CCOCCOCCOCCOCCOCCOCCOCCOCCOCCOCCOCCOCCNC(=O)Cn5cc(C(=O)N6CCN(C(=O)c7cn8nc(-c9ccc(F)cc9)cc(C(C)(C)C)c8n7)C(C)(C)C6)nn5)C(=O)NN)CC[C@]4(C)[C@H]3CC[C@]12C [Compound 17] | – | < 50% | 5.63 µM | –
– | COc1ccc2c(c1)c(C1=C(c3c[nH]c4ccccc34)C(=O)NC1=O)cn2CCCN(C)C [Compound G66983] | suppressed | – | – | inhibited
– | C=C1C(=O)N[C@@H](C)C(=O)N(C)[C@@H](C)C(=O)N[C@@H]([C@H](OC(=O)[C@@H](NC(=O)CC)[C@H](O)C(C)C)C(C)C)C(=O)N(C)[C@@H]([C@@H](C)OC)C(=O)O[C@H](C(C)C)[C@H](NC(C)=O)C(=O)O[C@H](Cc2ccccc2)C(=O)N1C [UBO-QIC] (Ac-[X1][dPhLac][NMeDha]A[NMeA][X1](Leu(3R-OH,Nα-propionyl))[NMeT](Me); ester 1-C) | suppressed | – | – | inhibited
